Experimental data reported in patent US7087648B1, “Methods for modulating macrophage proliferation using polyamine analogs” (The Regents of the University of California, priority 1997, dated 2006).
Where two headings read alike, the source gives them in different places.

Assays:
AIDS related lymphoma = assay: Clinical response to DEHOP in chemotherapy resistant AIDS related lymphoma patients; format: in vivo, human; details: for tumor relapse: after two cycles of DEHOP, no third cycle
Protocol: (§1) Four patients who had failed standard chemotherapy for treatment of their AIDS related lymphoma (therapy included at least CHOP chemotherapy up to six cycles). were evaluated for response to DEHOP administration in vivo. Patients had blood drawn pre administration of drug for evaluation of macrophage activation. This blood was also evaluated for response to DEHOP in vitro. […] Blood was obtained at 1 week after completion of the first and second cycles of therapy. The blood specimens were evaluated for macrophage proliferation (proliferating cell nuclear antigen, PCNA expression), and activation (percentage CD69 expression). Response to therapy was evaluated by direct observation of tumor (3 patients) and persistence or resolution of symptoms (1 patient with GI lymphoma).

brain cell aggregates = assay: In vitro cell killing of brain cell aggregates by macrophage supernatants treated or not with DEHOP; format: cell-based, human; details: FIG. 2
Protocol: To collect a maximum number of monocytes (both heavy and light), we used a one-step Percoll protocol. 1.5 mL whole heparinised blood was mixed with an equal volume of isotonic phosphate-buffered solution and layered over 5 mL Percoll at 1.087. The cells were centrifuged, washed, and resuspended in RPMI 1640 supplemented with 10% fetal calf serum at […]. To separate non-adherent lymphocytes from adherent monocytes, culture dishes were washed with RPMI after overnight incubation. The adherent cells were re-fed with RPMI and cultured for 7 days to obtain supernatants. Supernatants were clarified by centrifugation at 90,000 g over 25% sucrose overnight. The supernatant was filtered through a 0.22 μm syringe filter and stored at −70° C.
Human fetal brain tissue from between 16 and 18 weeks' gestation was obtained from elective abortions for preparation of brain cell aggregates. These aggregates contain all the cells of the central nervous system including neurons, astrocytes, oligodendrocytes with accompanying myelin, and microglial cells. After 10 days in culture, and before experimentation, aggregates were tested for viability by trypan-blue exclusion. […]
Lactate dehydrogenase is released on cell lysis. […] The brain aggregate supernatant was reacted with yellow tetrazolium salt and absorbance was read at 490 nm. […]

CD14^+ cells [1] = assay: In vivo response of blood CD14 cells (PCNA, CD69 expression) to DEHOP in AIDS lymphoma patients; parameters: species or system human; details: FIG. 7
Protocol: as §1
Because of intercurrent medical problems the patients were not allowed to receive a third cycle of DEHOP and both patients ultimately relapsed, FL on day 47 and LT on day 54. All of the macrophage activation parameters increased in both patients prior to their clinical objective tumor relapse.

[2] = system: human brain tumor cell lines; details: cited from earlier work
CD14^+ cells [3] = assay: In vitro dose response in NHL patient PBMC; total CD14^+ cell survival; format: cell-based, human; details: for EC50: Homo sapiens, PBMC, 120 h, read-out: ED50 (50% of cells killed); for EC50 / ED80 (80% of cells killed): 5 days of culture; for drug sensitivity in vitro: post in vivo DEHOP administration blood specimens
Protocol: To test whether patient macrophages would respond to administration of DEHOP in vitro, CD14 cells in a peripheral blood mononuclear cell preparation (PBMC) were exposed to different concentrations of DEHOP and the proportion of CD14 positive cells surviving at the end of 5 days of culture was assessed in drug treated cells as compared to controls. Specimens obtained pre chemotherapy were compared to specimens obtained 2 weeks post therapy. […] For patient four, the first specimen was obtained one day after the first cycle of DEHOP; the second specimen was obtained one week later. The effective dose 50 (where 50% of cells were killed), and effective dose 80 (where 80% of cells were killed) were calculated for each set of patient specimens exposed to DEHOP in vitro.

SMILES: CCNCCCCNCCCCNCCCCNCC [DEHOP, 1,14-bis(ethylamino)-5,10-diazatetradecane]
- Response to Therapy: objective measured tumor response after first week of Rx (AIDS related lymphoma; patient four, DEHOP sq for 5 days, 25 or 50 mg/m^2): >50% objective measured tumor
- tumor relapse (AIDS related lymphoma; patient four): 47 days
- Response to Therapy (AIDS related lymphoma; patient one, DEHOP sq for 5 days, 25 or 50 mg/m^2): None
- Response to Therapy (AIDS related lymphoma; patient three, DEHOP sq for 5 days, 25 or 50 mg/m^2): Clinical Response
- tumor relapse (AIDS related lymphoma; patient three): 54 days
- Response to Therapy (AIDS related lymphoma; patient two, DEHOP sq for 5 days, 25 or 50 mg/m^2): None
- clinical response (AIDS related lymphoma; patients, day 35 after initiation of study): objective and subjective responses
- cell killing by macrophage supernatants (brain cell aggregates; non-dementia disease control (AIDS lymphoma), with or without DEHOP treatment): did not show significant cell killing
- cell killing by macrophage supernatants (brain cell aggregates; peripheral blood of an AIDS dementia patient, preparations treated with DEHOP): virtually disappeared
- PCNA/CD69 expression of CD14 cells (CD14^+ cells [1]; after administration of drug): generally decreased
- expression of all macrophage activation parameters (CD14^+ cells [1]; day 35 after initiation of study): low to background level
- growth, survival, and cell cycle progression [2]: directly affects growth, survival, and cell cycle progression
- EC50 (CD14^+ cells [3]; patient one, Pre specimen): 10 µM
- EC50 (CD14^+ cells [3]; patient three, Post specimen): 0.1 µM
- EC50 (CD14^+ cells [3]; patient three, Pre specimen): 10 µM
- EC50 (CD14^+ cells [3]; patient two, Post specimen): > 10 µM
- EC50 (CD14^+ cells [3]; patient two, Pre specimen): 1 µM
- ED80 (80% of cells killed) (CD14^+ cells [3]; patient four, Post specimen): 0.1 µM
- ED80 (80% of cells killed) (CD14^+ cells [3]; patient four, Pre specimen): 1.0 µM
- ED80 (80% of cells killed) (CD14^+ cells [3]; patient one, Pre specimen): >10 µM
- ED80 (80% of cells killed) (CD14^+ cells [3]; patient three, Post specimen): 0.8 µM
- ED80 (80% of cells killed) (CD14^+ cells [3]; patient three, Pre specimen): >10 µM
- ED80 (80% of cells killed) (CD14^+ cells [3]; patient two, Post specimen): >10 µM
- ED80 (80% of cells killed) (CD14^+ cells [3]; patient two, Pre specimen): >10 µM
- drug sensitivity in vitro (CD14^+ cells [3]; patient two): persistently resistant to drug
- drug sensitivity in vitro (CD14^+ cells [3]; patients): marked drug sensitivity
